The source of these data is US10077271B2, “Methods and compositions for inhibiting the interaction of menin with MLL proteins” (Kura Oncology, Inc., priority 2015, dated 2018).

pIC50: −log10 of the molar value. Bounds are passed on as bounds.

For the test, the target named is T1, Menin MLL 4-43 (Homo sapiens, UniProt O00255).
T1 construct: 6His
T1 sequence (O00255 1-610): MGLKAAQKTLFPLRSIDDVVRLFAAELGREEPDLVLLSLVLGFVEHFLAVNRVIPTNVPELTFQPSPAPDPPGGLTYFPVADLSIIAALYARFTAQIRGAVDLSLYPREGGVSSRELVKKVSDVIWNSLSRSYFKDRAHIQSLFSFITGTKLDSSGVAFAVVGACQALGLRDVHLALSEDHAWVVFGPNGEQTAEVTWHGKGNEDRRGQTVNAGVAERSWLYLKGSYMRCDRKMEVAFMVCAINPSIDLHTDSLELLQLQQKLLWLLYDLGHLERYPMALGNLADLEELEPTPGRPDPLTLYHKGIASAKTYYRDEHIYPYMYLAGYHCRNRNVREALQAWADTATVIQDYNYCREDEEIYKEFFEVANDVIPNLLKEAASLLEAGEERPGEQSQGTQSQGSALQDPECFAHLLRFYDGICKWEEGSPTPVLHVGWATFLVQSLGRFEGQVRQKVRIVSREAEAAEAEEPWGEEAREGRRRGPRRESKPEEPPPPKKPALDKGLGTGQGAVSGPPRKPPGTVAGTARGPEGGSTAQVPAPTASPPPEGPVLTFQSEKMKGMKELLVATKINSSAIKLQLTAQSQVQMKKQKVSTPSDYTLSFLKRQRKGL
The experiment in a line: Inhibition of the menin-MLL interaction (Menin MLL 4-43 IC50). Format: binding. An excerpt: This example illustrates an assay effective in monitoring the binding of MLL to menin. […] A fluorescein-labeled peptide containing the high affinity menin binding motif found in MLL is produced according to Yokoyama et al. (Cell, 2005, 123(2): 207-218), herein incorporated by reference in its entirety. Binding of the labeled peptide (1.7 kDa) to the much larger menin (˜67 kDa) is accompanied by a significant change in the rotational correlation time of the fluorophore, resulting in a substantial increase in the fluorescence polarization and fluorescence anisotropy (excitation at 500 nm, emission at 525 nm).
A homogeneous time-resolve fluorescence (HTRF) assay is utilized as a secondary assay to confirm the results of the FP assay. In some embodiments, the HTRF assay is the primary assay and the FP assay is used as a secondary assay to confirm results. HTRF is based on the non-radiative energy transfer of the long-lived emission from the Europium cryptate (Eu^3+-cryptate) donor to the allophycocyanin (XL665) acceptor, combined with time-resolved detection. An Eu^3+-cryptate donor is conjugated with mouse anti-6His monoclonal antibody (which binds His-tagged menin) and XL665-acceptor is conjugate to streptavidin (which binds biotinylated MLL peptide). When these two fluorophores are brought together by the interaction of menin with the MLL peptide, energy transfer to the acceptor results in an increase in fluorescence emission at 665 nm and increased HTRF ratio (emission intensity at 665 nm/emission intensity at 620 nm). Inhibition of the menin-MLL interaction separates the donor from the acceptor, resulting in a decrease in emission at 665 nm and decreased HTRF ratio.

[1] abbreviates: Formula IV inhibitors of menin (Table 4i).
The mark [2] stands for this setting: Formula II inhibitors of menin (Table 4G).
Where [3] appears, read: Formula V inhibitors of menin (Table 4J).

For `Cc1c(CN2CCC(Nc3ncnc4sc(CC(F)(F)F)cc34)CC2)ccc2[nH]ncc12` [IV-9], the pIC50 (as a rule, the negative decadic logarithm of the IC50, by convention in mol/L) under setting [1] was 5.00 to 6.00.
The compound `C=Cc1nc(NC2CCN(Cc3ccc4[nH]c(C#N)cc4c3C)CC2)c2cc(CC(F)(F)F)sc2n1` [II-15] had a negative-log IC50 (pIC50) under setting [2] of 6.00 to 7.00.
`Cc1c(CN2CCC(Nc3ncnc4sc(CC(F)(F)F)cc34)C(F)(F)C2)ccc2[nH]c(C#N)cc12` (stereo not drawn) [III-3]: for the setting “Formula III inhibitors of menin (Table 4h)”, the pIC50 is < 5.00.
Regarding `Cc1c(CN2CCC(Nc3nc(C(F)F)nc4sc(CC(F)(F)F)cc34)CC2)ccc2c1cc(C#N)n2Cc1cn[nH]c1` [II-18], the pIC50 under setting [2] was < 5.00.
The same measure, in the same setting: for `Cc1c(CN2CCC(Nc3nc(C(F)(F)F)nc4sc(CC(F)(F)F)cc34)CC2)ccc2[nH]c(C#N)cc12` [II-11] the value was 6.00 to 7.00.
On to `Cc1c(CN2CCN(C(=O)c3ncnc4sc(CC(F)(F)F)cc34)CC2)ccc2[nH]c(C#N)cc12` [Compound V-3], for which, under setting [3], the pIC50 was < 5.00.
Take `Cc1c(CN2CCC(Nc3nc(Cl)nc4sc(CC(F)(F)F)cc34)CC2)ccc2[nH]c(C#N)cc12` [II-7]: the pIC50 under setting [2] was < 5.00.
Still for that read-out and setting: for `Cc1c(CN2CCC(Nc3nc(N)nc4sc(CC(F)(F)F)cc34)CC2)ccc2c1cc(C#N)n2Cc1cc[nH]n1` [II-16] the value was 6.00 to 7.00.
As for `Cc1c(CN2CCC(Nc3ncnc4sc(CC(F)(F)F)cc34)CC2)cnc2[nH]c(C#N)cc12` [IV-2], the pIC50 under setting [1] was < 5.00.
`C=CC(=O)Nc1ccc(CCC2C(C#N)=Cc3c2ccc(CN2CCC(Nc4nc(N)nc5sc(CC(F)(F)F)cc45)CC2)c3C)cn1` (stereo not drawn) [II-19] gave a pIC50 under setting [2] of 6.00 to 7.00.
As to `Cc1c(CN2CCC(Nc3nc(N)nc4sc(CC(F)(F)F)cc34)CC2)ccc2c1cc(C#N)n2Cc1cn[nH]c1` [II-4], the pIC50 under setting [2] was ≥ 7.00.
The same measure, in the same setting: the value for `Cc1c(CN2CCC(Nc3nc(C#N)nc4sc(CC(F)(F)F)cc34)CC2)ccc2c1cc(C#N)n2Cc1cn[nH]c1` [II-14] was 5.00 to 6.00.
On to `Cc1c(CN2CCC(Nc3ncnc4sc(CC(F)(F)F)cc34)C2)ccc2[nH]c(C#N)cc12` (stereo not drawn) [Compound V-15], for which, under setting [3], the pIC50 is < 5.00.
In turn, `FC(F)(F)Cc1cc2c(NC3CCN(Cc4ccc5[nH]ncc5c4)CC3)ncnc2s1` [IV-8] had a pIC50 under setting [1] of 6.00 to 7.00.
On to `Cc1c(CN2CCC(Nc3nc(N)nc4sc(CC(F)(F)F)cc34)CC2)ccc2[nH]c(C#N)cc12` [II-3], for which the pIC50 under setting [2] is ≥ 7.00.
Regarding `Cc1c(CN2CC(Nc3ncnc4sc(CC(F)(F)F)cc34)C2)ccc2[nH]c(C#N)cc12` [Compound V-13], the pIC50 under setting [3] was < 5.00.
For the compound `Cc1nc(NC2CCN(Cc3ccc4c(cc(C#N)n4Cc4cn[nH]c4)c3C)CC2)c2cc(CC(F)(F)F)sc2n1` [II-10], under setting [2], the negative logarithm of the IC50 (pIC50) is ≥ 7.00.
On to `C#Cc1nc(NC2CCN(Cc3ccc4c(cc(C#N)n4Cc4cn[nH]c4)c3C)CC2)c2cc(CC(F)(F)F)sc2n1` [II-17], for which the pIC50 under setting [2] was < 5.00.
